{"source": "patent US6965113B2", "about": "“Fluorescence intensity multiple distributions analysis: concurrent determination of diffusion times and molecular brightness” (Evotec AG, priority 2000, dated 2005)", "key": {"[1]": {"target": "T1, SH2-domain of the adapter protein Grb2 (Homo sapiens, UniProt P62993)", "T1 construct": "as a model system, the bare SH2 domain (14.3 kDa) has been chosen; made in house", "T1 sequence (P62993 60-152 limits assumed)": "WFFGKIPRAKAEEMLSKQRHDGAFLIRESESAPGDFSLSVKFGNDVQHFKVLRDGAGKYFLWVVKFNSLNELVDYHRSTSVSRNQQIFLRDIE", "experiment": "Experiment 2: titration of SH2 against constant 0.8 nM pTyr-Val-Asn-Val-Lys(Cy5), FCS, FIDA and FIMDA data collected simultaneously", "type": "binding", "settings": "0.8 nM conjugate, T=20° C.", "method": "Since the diffusion time of the dye is […] (compared to 40 μs) it spends only a short time in the confocal volume and its apparent brightness decreases. From this information the diffusion time can be calculated from a global fit.\nThe viability of the present invention was tested by measurements characterizing a ligand-protein interaction. The minimal peptide sequence pTyr-Val-Asn (originating from tyrosine kinase growth factor receptors) binds to the SH2-domain of the adapter protein Grb2. The conjugate pTyr-Val-Asn-Val-Lys(Cy5) was synthesized as binding partner for SH2. All measurements were performed under identical conditions (e.g. same buffer: sterile filter water, 50 mM Na-phosphate buffer pH 7.8, 50 mM NaCl and 0.05% Pluronic; T=20° C.). To obtain the KD value for the ligand protein interaction a titration experiment was carried out. The pTyr-Val-Asn-Val-Lys(Cy5) concentration was kept constant at 0.8 nM, while SH2 was subject to titration (0.01, 0.03, 0.1, 0.3, 1, 3, 10, 30, 100, and 130 μM). Each sample was measured 30 times keeping the acquisition time at 30 seconds per measurement. FCS (prior art), FIDA (prior art) and FIMDA (present invention) data were collected simultaneously in order to compare all three methods. It becomes clear that FIMDA is able to resolve both, the specific brightness and the diffusion time of both species (ligand and complex). Therefore, FIMDA is a more versatile tool than FCS or FIDA and will save assay development time. Comparing the standard deviations of all methods in determining brightness and diffusion time FIMDA is better or at least as good as FCS or FIDA."}, "[2]": {"target": "T2, SH2 domain of Grb2 (Homo sapiens, UniProt P62993)", "T2 construct": "as a model system, the bare SH2 domain (14.3 kDa) has been chosen; made in house", "T2 sequence (P62993 60-152 limits assumed)": "as above", "experiment": "Experiment 1: titration of SH2 against constant 0.4 nM pTyr-Val-Asn-Val-Lys(Cy5), confocal fluorescence fluctuation measurement (FIMDA, FCS, FIDA), hyperbolic fit of fraction bound", "settings": "0.4 nM conjugate, same buffer, T=20° C., read-out: binding constant KD for the SH2-phosphopeptide interaction", "description": "The central optical part of the present FIMDA experiment is a confocal microscope as it is used in fluorescence correlation spectroscopy (Koppel et al., Biophys. J. 16: 1315-1329, 1976: Rigler et al., Eur. Biophys. J. 22: 169-175, 1993). For the excitation of fluorescence, a beam from a continuous wave laser is attenuated to ˜800 μW by neutral density filters, passes a beam expander, and is directed to the microscope objective (UApo/340, 40x, N.A. 1.15, Olympus Optical Co. Ltd., Tokyo, Japan) by a dichroic mirror. Fluorescence is collected by the said objective through the dichroic mirror, a spectral band-pass filter, and is focused to a confocal pinhole, which serves to reject the out-of-focus light. The light, which passes the pinhole, is detected by a silicon photon counting module (SPCM-AQ-131, EG&G Optoelectronics, Vaudreuil, Canada). […]\nA series of simultaneously measured or simulated distributions is globally fitted using a Marquardt algorithm. […] Theoretical distributions are calculated using exactly the same algorithm as in FIDA, except that each species has an individual apparent concentration and an apparent brightness at each time window, calculated according to Eqs. […]"}}, "note": "Where two headings read alike, the source gives them in different places. Square brackets hold non-standard residues; d marks the D form. Peptide text beside a SMILES is read from it. * marks the point of attachment. X1 = CC[N+]1=C(C=CC=CC=C2N(CCCCCC(=O)*)c3ccc(S(=O)(=O)O)cc3C2(C)C)C(C)(C)c2cc(S(=O)(=O)[O-])ccc21; pY = N[C@@H](Cc1ccc(OP(=O)(O)O)cc1)C(=O)O", "data": [{"smiles": "CC[N+]1=C(C=CC=CC=C2N(CCCCCC(=O)NCCCC[C@H](NC(=O)[C@@H](NC(=O)[C@H](CC(N)=O)NC(=O)[C@@H](NC(=O)[C@@H](N)Cc3ccc(OP(=O)(O)O)cc3)C(C)C)C(C)C)C(=O)O)c3ccc(S(=O)(=O)O)cc3C2(C)C)C(C)(C)c2cc(S(=O)(=O)[O-])ccc21", "note": "[pTyr-Val-Asn-Val-Lys(Cy5)] (H-[pY]VNVK(X1)-OH; N-terminus and C-terminus assumed)", "values": [{"measurement": "Kd", "setting": "[1]; FCS, same buffer", "result": "2260 ± 280", "unit": "nM"}, {"measurement": "Kd", "setting": "[1]; FIDA, same buffer", "result": "1700 ± 290", "unit": "nM"}, {"measurement": "Kd", "setting": "[1]; FIMDA, 50 mM Na-phosphate buffer pH 7.8, 50 mM NaCl, 0.05% Pluronic", "result": "1680 ± 270", "unit": "nM"}, {"measurement": "Kd", "setting": "[2]; FCS", "result": "2160 ± 190", "unit": "nM"}, {"measurement": "Kd", "setting": "[2]; FIDA", "result": "1600 ± 190", "unit": "nM"}]}]}
